Laboratory results: patent publication US20040092581A1, “Ratjadone derivatives for inhibiting cell growth” (priority 2001, published 2004)
Values after ≈ are worked out from the molar mass of the structure shown. Like-named read-outs stand apart in the source and are kept apart here. Marks after values point to notes of the source that are not given here.

Key:
[1] = tested on: HeLa cells (KB3.1); settings: cited from earlier work
[2] = tested on: HepG2 cells (liver carcinoma cells); assay: Influence on the cell cycle, continuous flow cytometry, HepG2 cells; format: cell-based; settings: 5 nM, 48 h incubation
Procedure: (§1) Glioblastoma cells and HepG2 cells (liver carcinoma cells) were in each case incubated for 48 h without the substance 1 according to the invention and in nutrient medium containing various concentrations of the substance 1 according to the invention. The cells were harvested and measured by continuous flow cytometry.
(§2) Bookmark not defined. to […]. for glioblastoma cells and […]. to […]. for HepG2 cells, in each case in plot form. In each case the DNA content is indicated on the X axis and the cell count is indicated on the Y axis. Bookmark not defined. to […]. were obtained in each case with 0 nM, 10 nM and 20 nM, respectively, of the preferred substance 1 according to the invention in the culture medium; the results shown in Figures […]. to […]. were obtained with 0 nM, 2 nM and 5 nM, respectively, of the preferred substance 1 according to the invention in the culture medium.
(§3) It can be seen that for both cell lines tested the absolute number and the number of cells in the S and in the G2 phase decreases with increasing concentration of substance 1. […] The preferred substance 1 according to the invention thus arrests the cell cycle in the G1 phase at the dosage suitable for the particular cell type.

[3] = tested on: MCF 7 (mammary carcinoma); assay: cells; format: cell-based; settings: for CC50 / GI50: Homo sapiens; for CC50: read-out: LC50; for TGI: complete inhibition of cell growth
Procedure: (§4) The tables below show the influence of the substances 1, 36 and 37 according to the invention on the growth of tumor cells, specifically the growth of the cell lines HM02 (gastroadenocarcinoma), HepG2 (liver carcinoma) and MCF 7 (mammary carcinoma).
(§5) The studies were carried out in accordance with the NCI guidelines (Grever et al., Seminars in Oncology 19 (1992), 622-638). The cells were cultured in 96-well microtitre plates in RPMI 1640 medium with 10% FCS (foetal calf serum). 24 h after dissemination of the cells, the substances 1 and 36 according to the invention dissolved in methanol were added and the cells were incubated for a further 48 h. The cell count was then determined.
(§6) GI50: denotes the concentration that effects a semi-maximum inhibition of the cell growth
(§7) TGI: denotes the concentration that effects complete inhibition of the cell growth

[4] = tested on: HM02 (gastroadenocarcinoma); assay: cells; format: cell-based; settings: for CC50: read-out: LC50; for TGI: complete inhibition of cell growth
Procedure: as §4, §5, §6, §7

[5] = tested on: HepG2 (liver carcinoma); assay: cells; format: cell-based; settings: for TGI: complete inhibition of cell growth; for CC50 / GI50 / inhibition at 0.5 µg/mL: Homo sapiens; for CC50: read-out: LC50; for inhibition at 0.5 µg/mL: HEP-G2, at 500 ng/ml, read-out: growth inhibition
Procedure: as §4, §5, §6, §7

[6] = tested on: glioblastoma cells growing on a conventional carrier; assay: Shape and carrier adhesion of glioblastoma cells; format: cell-based; settings: 50 nM
Description: In addition, the shape of glioblastoma cells growing on a conventional carrier as a function of the concentration of the substance 1 according to the invention was investigated (no figure). In the absence of substance 1 the cells have their typical dendritic shape and adhere to (sic) the carrier surface.

[7] = tested on: Glioblastoma cells; assay: Influence on the cell cycle, continuous flow cytometry, glioblastoma cells; format: cell-based; settings: 20 nM, 48 h incubation
Procedure: as §1, §2, §3

[8] = MCF7, MCF 7, 48 h incubation, semi-maximum inhibition of cell growth, read-out: GI50

| Structure (SMILES) | IC50, inhibition of growth of HeLa cells (KB3.1) [1] [ng/mL] | cell cycle phase distribution (G1 arrest) [2] | CC50 ([3]; MCF7, 48 h) [ng/mL] | GI50 [3, 8] [ng/mL] | TGI ([3]; MCF 7, 48 h incubation) | CC50 ([4]; HM02, 48 h) [ng/mL] | TGI ([4]; HM02, 48 h incubation) | GI50 ([4]; HM02, 48 h incubation, semi-maximum inhibition of cell growth, read-out: GI50) [ng/mL] | TGI ([5]; HEP-G2, 48 h incubation) | CC50 ([5]; HepG2, 48 h) [ng/mL] | GI50 ([5]; HepG2, HEP-G2, 48 h incubation, semi-maximum inhibition of cell growth, read-out: GI50) [ng/mL] | inhibition at 0.5 µg/mL ([5]; HepG2) [%] | cell shape and adhesion to the carrier surface [6] | cell cycle phase distribution (G1 arrest) [7] | GI50 ([3]; MCF7, 48 h) [ng/mL] | GI50 ([4]; HM02, 48 h) [ng/mL] | GI50 ([5]; HepG2, 48 h) [ng/mL] | inhibition at 0.1 µg/mL ([4]; HM02, read-out: growth inhibition) [%] |
| --- | --- | --- | --- | --- | --- | --- | --- | --- | --- | --- | --- | --- | --- | --- | --- | --- | --- | --- |
| C/C=C/[C@@H]1O[C@H]([C@H](O)/C=C/C=C(\C)C[C@@H](C)/C=C(C)\C=C\[C@H]2CC=CC(=O)O2)C[C@@H](O)[C@@H]1C [Ratjadon, ratjadon] | 0.05 |  |  |  |  |  |  |  |  |  |  |  |  |  |  |  |  |  |
| C/C=C/[C@H]1O[C@@H]([C@@H](O)/C=C/C=C(\C)C[C@@H](C)/C=C(C)\C=C\[C@H]2CC=CC(=O)O2)C[C@H](O)[C@H]1C [Substance 1] |  | virtually all cells tested are in the G1 phase | < 500 | 16 (≈ 0.035 µM) | >500^b ng/ml | 250 (≈ 0.547 µM) | 24 ng/mL (≈ 0.0526 µM) | < 5 | 500^b ng/ml | > 500 | 13 (≈ 0.0285 µM) | 80 | the cells have largely lost their dendritic shape and detach easily from the carrier surface | virtually all cells tested are in the G1 phase |  |  |  |  |
| CC(=C/[C@H](C)C/C(C)=C/C=C/[C@H](O)[C@H]1CCCCO1)/C=C/[C@H]1CC=CC(=O)O1 [Substance 36] |  |  | > 500 |  | >500^c ng/ml | > 500 | 140 ng/mL (≈ 0.362 µM) |  | >500^c ng/ml | > 500 |  | 60 |  |  | 100 (≈ 0.259 µM) | 5 (≈ 0.0129 µM) | 58 (≈ 0.15 µM) |  |
| C/C=C/[C@H]1O[C@@H]([C@@H](O)/C=C/C=C(\C)C[C@@H](C)/C=C(C)\C=C\[C@@H]2CC=CC(=O)O2)C[C@H](O)[C@H]1C [Substance 37] |  |  | > 100 | 25 (≈ 0.0547 µM) | >100 ng/mL | > 100 | >100^a ng/ml |  | >100 ng/mL | > 100 |  |  |  |  |  | 17 (≈ 0.0372 µM) | 85 (≈ 0.186 µM) | 90 |
